Measured values published in patent US20120010161A1, “NOVEL AZAPEPTIDE OR AZAPEPTIDOMIMETIC COMPOUNDS INHIBITING BCRP AND/OR P-GP” (CENTRE NATIONAL DE LA RECHERCHE SCIENTIFIQUE, priority 2009, published 2012).
“Also recorded” adds a separate entry of the source.

Experiments:
MRP1/ABCC1 = biological target: T1, MRP1/ABCC1 (Homo sapiens, UniProt P33527); test: Flow cytometry: daunorubicin efflux induced by ABCC1 in transfected BHK21 cells; assay type: cell-based; conditions: probe daunorubicin (1 μM), 10 μM compound, read-out: MRP1/ABCC1 % efficacy 10 μM
T1 construct: His; expressed in transfected cells; host or cells: BHK21 (newborn hamster kidney) transfected with pNUT-MRP/His
T1 sequence (P33527 whole entry): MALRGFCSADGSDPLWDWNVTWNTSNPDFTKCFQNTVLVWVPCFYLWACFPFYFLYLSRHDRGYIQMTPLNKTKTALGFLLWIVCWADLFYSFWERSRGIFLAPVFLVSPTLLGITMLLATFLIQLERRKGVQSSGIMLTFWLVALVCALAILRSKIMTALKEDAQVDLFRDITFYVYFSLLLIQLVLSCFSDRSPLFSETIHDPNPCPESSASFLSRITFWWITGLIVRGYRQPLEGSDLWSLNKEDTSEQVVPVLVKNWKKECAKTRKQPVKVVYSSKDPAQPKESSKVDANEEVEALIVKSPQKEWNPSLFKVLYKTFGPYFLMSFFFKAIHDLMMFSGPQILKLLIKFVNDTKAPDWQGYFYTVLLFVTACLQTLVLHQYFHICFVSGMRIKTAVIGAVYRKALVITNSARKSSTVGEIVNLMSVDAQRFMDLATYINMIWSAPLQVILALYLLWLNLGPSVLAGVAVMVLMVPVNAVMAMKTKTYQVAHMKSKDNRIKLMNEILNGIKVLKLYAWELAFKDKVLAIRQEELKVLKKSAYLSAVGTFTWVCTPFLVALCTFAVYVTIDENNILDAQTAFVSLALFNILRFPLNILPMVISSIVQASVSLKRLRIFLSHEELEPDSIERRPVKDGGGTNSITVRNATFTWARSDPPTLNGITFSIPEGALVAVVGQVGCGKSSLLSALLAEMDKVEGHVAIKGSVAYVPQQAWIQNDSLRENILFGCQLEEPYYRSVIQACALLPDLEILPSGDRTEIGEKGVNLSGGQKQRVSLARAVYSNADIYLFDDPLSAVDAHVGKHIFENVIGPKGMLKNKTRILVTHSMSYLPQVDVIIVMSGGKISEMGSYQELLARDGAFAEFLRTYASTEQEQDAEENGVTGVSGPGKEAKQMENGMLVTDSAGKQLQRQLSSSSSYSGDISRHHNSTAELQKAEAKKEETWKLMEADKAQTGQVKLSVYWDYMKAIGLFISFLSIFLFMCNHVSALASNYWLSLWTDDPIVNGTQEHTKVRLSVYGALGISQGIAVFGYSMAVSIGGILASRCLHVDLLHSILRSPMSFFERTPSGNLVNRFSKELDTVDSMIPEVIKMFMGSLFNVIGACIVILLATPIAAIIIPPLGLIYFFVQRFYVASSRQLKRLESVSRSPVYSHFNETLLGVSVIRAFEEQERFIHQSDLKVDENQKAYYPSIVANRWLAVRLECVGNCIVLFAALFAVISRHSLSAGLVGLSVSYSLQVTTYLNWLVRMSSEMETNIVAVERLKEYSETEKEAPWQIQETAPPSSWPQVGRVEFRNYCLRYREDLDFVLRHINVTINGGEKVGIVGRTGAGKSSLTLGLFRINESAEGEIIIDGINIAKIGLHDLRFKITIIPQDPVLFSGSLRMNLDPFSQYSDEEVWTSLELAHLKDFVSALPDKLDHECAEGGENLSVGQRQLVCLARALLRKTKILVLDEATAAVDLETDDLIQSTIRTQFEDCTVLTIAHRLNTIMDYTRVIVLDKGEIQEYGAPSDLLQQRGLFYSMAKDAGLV
Source text: Cell cultures. The human […] HEK-293 transfected with the vector pcDNA3.1 including or not the gene encoding ABCG2 (Robey, R. W., Honjo, Y., Morisaki, K., Nadjem, T. A., Runge, S., Risbood, M., Poruchynsky, M. S., Bates, S. E. 2003, Br. J. Cancer 89(10) 1971-1978) was used to test the efficacy of the products on ABCG2. The newborn hamster kidney cell line BHK21 either natural (negative control) or transfected with the vector pNUT-MRP/His expressing the gene encoding ABCC1 (Chang, Xiu-Bao, Hou, Yue-Xian, Riordan, John R. 1997, J. Biol. Chem. 272(49) 30962-30968) was used to test the efficacy of the products on ABCC1. The cell line NIH3T3 natural or transfected with the vector pHaMDR1/A expressing ABCB1 (Cardarelli, Carol O., Aksentijevich, Ivan, Pastan, Ira, Gottesman, Michael M. 1995 Cancer Res. 55 1086-1091) was used to test the efficacy of the compounds on ABCB1. […]
FIG. 1 schematically illustrates an efflux of substrate induced by a typical ABC transporter. The substrates S, such as mitoxantrone effluxed with ABCG2 and ABCB1 or daunorubicin effluxed with ABCC1, are accumulated in the cells and expelled by the transporter T, leading to a decrease in intracellular fluorescence. In the case of accumulation of the product, typically by inhibition of the efflux protein, the intracellular fluorescence increases.
Flow cytometry. […] The drug intracellular fluorescence is measured with a FACscan flow cytometer (Becton Dickinson, Mountain View, Calif.). The fluorescent substrates are excited at 488 nm; the fluorescence emission of mitoxantrone (MTX) is measured at 650 nm and that of daunorubicin is measured at 530 nm. […]
in which: • FA corresponds to the intracellular level of substrate measured in the cells overexpressing the transporter T (corresponding to the lowest level of fluorescence in the absence of inhibitor), • FC corresponds to the fluorescence in the control cells not expressing the test transporter. […]

[1] = test system: HEK-293 cells expressing ABCG2; test: Chemosensitization to mitoxantrone, cell growth test (MTT); assay type: cell-based, human; conditions: 5 μM compound, 72 hours, compared with cells not expressing ABCG2
Protocol: The cells are seeded (10 000 cells/well) in 96-well plates and incubated for 24 hours at 37° C. under 5% CO2. Varied concentrations of mitoxantrone (from 0 to 20 μM in a constant final volume of 100 μL) are then added with an equal volume of each of the test compounds. The cells are then left to divide for 72 hours. The cytotoxicity is evaluated colorimetrically with 3-(4,5-dimethylthiazol-2-yl)-2,5-diphenyltetrazolium bromide (MTT).
Increasing concentrations of mitoxantrone (MTX) are applied to HEK-293 cells expressing or not expressing ABCG2 and subjected or not subjected to a treatment with 5 μM of compound (IA.2), and whose residual vitality is evaluated after 72 hours of treatment by an MIT test. The results are illustrated in FIG. 3, in which the cells expressing ABCG2 are represented by circles, and those not expressing it by squares; those that are treated with 5 μM of (IA.2), i.e. five times its IC50, appear as empty symbols, whereas those that are not treated with (IA.2) appear as solid symbols. […] Compound (IA.2) thus appears to be a very efficient chemosensitizer.
Increasing concentrations of mitoxantrone (MTX) are applied to HEK-293 cells expressing or not expressing ABCG2 and subjected or not subjected to a treatment with 5 μM of compound (IA.1), and whose residual vitality is evaluated after 72 hours of treatment by an MTT test. The results are illustrated in FIG. 5, in which the cells expressing ABCG2 are represented by circles, and those not expressing it by squares; those that are treated with 5 μM of (IA.1), i.e. 2.5 times its IC50, appear as empty symbols, whereas those that are not treated with (IA.1) appear as solid symbols. […]
Increasing concentrations of mitoxantrone (MTX) are applied to HEK-293 cells expressing or not expressing ABCG2 and subjected or not subjected to a treatment with 5 μM of compound (IB.1), and whose residual vitality is evaluated after 72 hours of treatment by an MTT test. […]

SMILES | inhibition at 10 μM (MRP1/ABCC1) [%] | chemosensitization: restoration of mitoxantrone sensitivity [1]
CC(C)(C)OC(=O)NN(C(=O)N[C@@H](CCCCNC(=O)OCc1ccccc1)C(=O)OC(C)(C)C)c1ccccc1C(=O)OCc1ccccc1 [IA.1, tert-Butyl ester of (2S)-6-(benzyloxycarbonylamino)-2-[1-(2′-(benzyloxycarbonyl)phenyl)-2-(tert-butoxycarbonyl)hydrazino-carbonylamino]hexanoic acid] | 14 ± 3 | chemosensitization; also recorded: restores virtually full mitoxantrone sensitivity
CC(C)(C)OC(=O)NN(C(=O)N[C@@H](CCCCNC(=O)OCc1ccccc1)C(=O)OC(C)(C)C)c1cccc(C(=O)OCc2ccccc2)c1 [IA.2, tert-Butyl ester of (2S)-6-(benzyloxycarbonylamino)-2-[1-(3′-(benzyloxycarbonyl)phenyl)-2-(tert-butoxycarbonyl)hydrazino-carbonylamino]hexanoic acid] | 5 ± 1 | chemosensitization; also recorded: restores mitoxantrone sensitivity equal to that observed in the control cells
CC(C)(C)OC(=O)N[C@H](CNN(CCCCCCNC(=O)OCc1ccccc1)C(=O)OC(C)(C)C)CC(=O)OCc1ccccc1 [IB.1, Benzyl ester of (3S)-4-[2-(6-benzyloxycarbonylaminohexyl)-2-tert-butoxycarbonylhydrazino]-3-tert-butoxycarbonylaminobutyric acid] | 5 ± 1 | chemosensitization; also recorded: virtually full restoration of mitoxantrone sensitivity
